Assay results from patent US8466291B2, “1,5-dideoxy-1,5-imino-D-glucitol compounds” (Academia Sinica, priority 2008, dated 2013).

How the values were obtained:
[1] = target: Bacteroids fragilis O-GlcNAcase (Bacteroides fragilis, UniProt Q5L8V6); experiment: Michaelis-Menten/Lineweaver-Burk kinetic inhibition of O-GlcNAcase with 4MU-NAG substrate; type: biochemical
Protocol: Bacteroids fragilis O-GlcNAcase, which is highly homologous to human O-GlcNAcase, was prepared as follows. Based on the genome sequence of B. fragilis (NCTC 9343) as disclosed in GenBank accession no. CR626927 (Oct. 23, 2008), a DNA fragment encoding the B. fragilis O-GlcNAcse was amplified via polymerase chain reaction (PCR), using the primers of: 5′-[…]-3′ (SEQ ID NO:1) (forward primer) and 5′-[…]-3′ (SEQ ID NO:2) (reverse primer). The PCR product was cloned into pGEM-T Easy vector (Promega) via cloning sites Nde1 and Xho1 and then subcloned into pET21b vector to produce expression plasmid pOGA, which encodes a fusion protein including O-GlcNAcase and a His6 tag at the C-terminus
Plasmid pOGA was transformed into E. coli BL21 (DE3) cells and a positive transformant was cultured in Luria-Bertani (LB) medium with ampicillin (100 μg/mL) overnight. The E. coli culture, transferred to fresh LB medium, was incubated at 37° C. and, when A600 of the culture reached 0.6, isopropyl-β-D-thiogalactopyranoside (final conc: 250 μM) was added to induce expression of O-GlcNAcse. The induced cells were further cultured at 16° C. overnight, harvested, and disrupted to produce a cell lysate. Upon centrifugation, the supernatant thus obtained was loaded onto a nickel-affinity column. After elution, a fraction containing O-GlcNAcse was collected and the enzyme contained therein was further purified by gel filtration using a Superdex 6 column. See Dennis et al., Nat Struct Mol Biol 2006, 13: 365-71. The purified protein was concentrated using a 10 kDa-cutoff concentrator and dialyzed against 20 mM HEPES (pH 7.5).
The reaction conditions for each enzyme are shown below:
O-GlcNAcase: reaction mixture (0.5 nM O-GlcNAcase (200 μL) in 50 mM citric acid, 100 mM NaCl, 0.1% BSA, 0.05-1.5 mM substrate, pH 4.25) was incubated at 30° C. for 25 minutes. The enzyme activity at different time points was determined by measuring the levels of the fluorescent signals (excitation wavelength: 360 nm; emission wavelength: 460 nm) released from 4-methylumbelliferone, a product of the enzyme reaction.
In these reactions, the substrate concentrations were three to five fold of the concentration used for determining KM (absent compounds) and the ratio between the enzyme and the compound was 0.1-0.5 nM to 0.3 nM-200 uM. The data thus obtained were analyzed by the Lineweaver-Burk plot. The K1 values were determined by the double reciprocal plot (1/V vs. 1/[S]). More specifically, the Km values for each enzyme in the presence of one of the test compounds first determined and these values were further plotted in view of the concentrations of the compound. K1 was determined by calculating the negative value of the resulting x-intercept. The selectivity of each compound was calculated by the formula: K1 O-GlcNAcase/K1 Hex B.

human Hex B (FLAG-HexB) = target: T1, human Hex B (FLAG-HexB) (Homo sapiens, UniProt P07686); experiment: In situ immunostaining of Compound 5 and FLAG-HexB in 293T/FLAG-HexB cells; type: cell-based; details: confocal immunofluorescence, anti-FLAG and anti-biotin antibodies
T1 construct: FLAG (N); expressed in transfected cells
T1 sequence (P07686 122-556): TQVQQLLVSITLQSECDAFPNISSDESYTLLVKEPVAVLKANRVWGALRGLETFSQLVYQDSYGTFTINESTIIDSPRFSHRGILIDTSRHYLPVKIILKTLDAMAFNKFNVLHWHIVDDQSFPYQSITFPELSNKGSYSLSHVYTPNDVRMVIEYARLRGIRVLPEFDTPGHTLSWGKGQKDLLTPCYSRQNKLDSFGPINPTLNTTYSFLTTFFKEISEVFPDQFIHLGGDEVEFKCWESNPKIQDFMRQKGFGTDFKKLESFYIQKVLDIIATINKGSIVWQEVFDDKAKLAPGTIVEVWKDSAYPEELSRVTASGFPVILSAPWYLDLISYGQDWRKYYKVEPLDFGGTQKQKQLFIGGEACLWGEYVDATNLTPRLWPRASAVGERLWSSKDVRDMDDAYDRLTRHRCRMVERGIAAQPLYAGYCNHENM
Protocol: A DNA fragment encoding human Hex B was amplified by PCR and cloned into pCMV-Tag 2B vector (Stratagene) to produce FLAG-tagged HexB expression plasmid (pFLAG-HexB). This plasmid was introduced into 293T cells to establish a cell line stably expressing FLAG-HexB. Briefly, 293T cells were maintained in Dulbecco's modified Eagle's medium (DMEM) supplemented with 10% (by volumn) heat inactivated fetal bovine serum (FBS), 2 mM glutamine, 100 units/mL penicillin and 100 μg/mL streptomycin at 37° C. in a 5% CO2 atmosphere. These cells were transfected with expression plasmid pFLAG-HexB and plasmid pBabe-puro (carrying a puromycin resistance gene) at a molar ratio of 30-40:1. 8 hours later, the transfected cells were fed with fresh medium and incubated for 16 h. These cells were then cultured in puromycin-containing (2 μg/mL) medium for 2-3 weeks to screen for puromycin-resistant clones.
Binding of Compound 5 to HexB was first examined by in situ immunostaining as follows. 293T/FLAG-HexB cells were grown on glass coverslips in the presence of biotin-conjugated Compound 5 and fixed in 4% paraformaldehyde for 15 min. […]

[2] = tested on: BV2 cells (mouse microglia cells); experiment: GM2 ganglioside accumulation in BV2 microglia cells by Western blot; type: cell-based; details: different concentrations, 16 hr, Western blot with anti-Ganglioside asialo GM2 antibody
Protocol: BV2 cells (mouse microglia cells) were cultured in DMEM for 24 hr in 60-mm tissue culture dishes. The cells were washed once with PBS (pH 7.4), and 2 mL of fresh medium with or without biotin conjugated Compound 5 (at different concentrations) was added to each dish. After being incubated in a 5% CO2 incubator at 37° C. for 16 hr, the BV2 cells were harvested, re-suspended in a solution containing PBS and 2×SDS lysis buffer (250 mM Tris, pH 6.8/4% SDS/20% glycerol/0.002% bromophenol blue/10% 2-mercaptoethanol) at a ratio of 1:1 to produce whole cell lysates. The cell lysates were boiled and then subjected to SDS-PAGE (15%) using a mini-gel apparatus (Biorad, Germany). Substances contained in the gel were transferred to a nitrocellulose membrane (Millipore) at 1 mA/cm^2 using a semidry blot system (Biorad, Germany). The membrane was blocked with a Tris-buffered saline (TBST) (50 mM Tris-HCl, pH 7.5; 150 mM NaCl; 0.1% Tween-20) containing 5% skim-milk and then blotted with an anti-Ganglioside asialo GM2 antibody and an anti-GAPDH antibody.

Bacteroids fragilis O-GlcNAcase, sequence (Q5L8V6 entry or part of it): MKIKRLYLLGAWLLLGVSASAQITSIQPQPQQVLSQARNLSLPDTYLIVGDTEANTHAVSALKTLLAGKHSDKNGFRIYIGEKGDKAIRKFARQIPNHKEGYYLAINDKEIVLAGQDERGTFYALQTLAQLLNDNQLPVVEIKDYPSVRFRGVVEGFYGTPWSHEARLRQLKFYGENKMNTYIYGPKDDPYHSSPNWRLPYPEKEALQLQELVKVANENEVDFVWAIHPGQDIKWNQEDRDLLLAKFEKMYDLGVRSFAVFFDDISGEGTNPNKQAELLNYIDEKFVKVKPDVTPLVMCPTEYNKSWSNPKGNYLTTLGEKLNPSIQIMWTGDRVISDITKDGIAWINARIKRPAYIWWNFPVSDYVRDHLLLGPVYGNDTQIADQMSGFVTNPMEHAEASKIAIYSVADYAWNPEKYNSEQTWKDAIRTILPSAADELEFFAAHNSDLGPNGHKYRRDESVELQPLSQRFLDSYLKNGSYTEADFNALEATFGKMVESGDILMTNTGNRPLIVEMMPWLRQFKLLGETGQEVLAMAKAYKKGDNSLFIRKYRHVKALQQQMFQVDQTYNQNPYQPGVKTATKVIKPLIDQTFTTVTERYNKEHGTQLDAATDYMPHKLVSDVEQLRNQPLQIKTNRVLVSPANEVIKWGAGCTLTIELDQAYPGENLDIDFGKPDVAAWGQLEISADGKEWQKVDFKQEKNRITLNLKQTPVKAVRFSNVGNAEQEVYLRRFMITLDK

CC(=O)NC1CN(CCCCCCCNC(=O)CCCCC2SCC3NC(=O)NC32)C(CO)C(O)C1O (stereo not shown) [Compound 5]
Ki [1]: 69.6 ± 1.77 µM
Selectivity (KI O-GlcNAcase/KI HEX) ([1]; Bacteroids fragilis O-GlcNAcase over human HEX B, Table 1): 2,600
co-localization of FLAG-HexB and compound (human Hex B (FLAG-HexB)): co-localized in the cytoplasm
ganglioside GM2 accumulation [2]: accumulated in Compound 5-treated BV2 cells in a dose-dependent manner
